Measurements published in PubChem BioAssay AID652226 (The Scripps Research Institute Molecular Screening Center, 2013).
Activity calls are given as the source filed them.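 The calls were made as follows: active = compounds blocking PP5 with IC50 under 10 µM; inactive = the rest.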

The compounds below were run against Serine/threonine-protein phosphatase 5 (Homo sapiens) (UniProt P53041) (assay: PP5 phosphatase inhibitor potency, late-stage follow-up, selectivity assay for PP1 inhibitor project, biochemical, fluorescence, OMFP substrate, set 1 (AID 652226)). Details: purified PP5c, OMFP dephosphorylation.
Chain of Serine/threonine-protein phosphatase 5 (Homo sapiens) (P53041 whole entry, looked up): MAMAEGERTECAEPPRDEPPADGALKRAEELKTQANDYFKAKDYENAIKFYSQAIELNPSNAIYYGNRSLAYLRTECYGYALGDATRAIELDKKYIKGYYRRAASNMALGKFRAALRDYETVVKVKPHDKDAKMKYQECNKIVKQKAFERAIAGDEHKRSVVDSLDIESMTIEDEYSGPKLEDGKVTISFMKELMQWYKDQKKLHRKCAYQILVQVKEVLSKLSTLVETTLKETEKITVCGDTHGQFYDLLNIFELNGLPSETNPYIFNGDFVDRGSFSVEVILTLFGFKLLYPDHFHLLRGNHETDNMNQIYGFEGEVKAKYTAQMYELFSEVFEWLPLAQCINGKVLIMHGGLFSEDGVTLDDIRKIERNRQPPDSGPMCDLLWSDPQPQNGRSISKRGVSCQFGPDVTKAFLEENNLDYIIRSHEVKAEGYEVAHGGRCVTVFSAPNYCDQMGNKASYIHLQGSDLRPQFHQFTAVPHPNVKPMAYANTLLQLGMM

| IC50 | SMILES |
| --- | --- |
| inactive | Oc1c(Cc2ccccn2)ccc2cccnc12 |
| inactive | Oc1c(C(c2ccccn2)N2CCOCC2)cc(Cl)c2cccnc12 (stereo not drawn) |
| inactive | CN1CCN(C(c2ccccn2)c2ccc3cccnc3c2O)CC1 (stereo not drawn) |
